Data reported in patent US20160287710A1 (UNIVERSITY OF UTAH RESEARCH FOUNDATION, priority 2013, published 2016).
In brackets after ≈: the same amount, converted by molar mass.

Experiment: Solubility of progesterone in glycol chitin solutions (reverse-phase HPLC)
Type: physicochemical
Conditions: aqueous with cosolvent or surfactant or cyclodextrin
Procedure: A mixture of methanol/water (80:20; v/v) was used, as the mobile phase at a flow rate of 1 mL per minute. […] FIG. 1.

solubility at 24 h (5 wt % glycol chitin solution, 4 °C, thermodynamic from solid): 148 ± 13.8 µg/mL (≈ 472 µM)
solubility (in a mixture of PEG-400/water (50:50 v/v)): ~200 µg/mL (≈ 636 µM)
SMILES: CC(=O)[C@H]1CC[C@H]2[C@@H]3CCC4=CC(=O)CC[C@]4(C)[C@H]3CC[C@]12C [Progesterone]
